Results from ChEMBL document CHEMBL1201862, “PubChem BioAssay data set” (2004).
The source made the active and inactive calls.

Key:
[1] = biological target: T1, Microphthalmia-associated transcription factor (Homo sapiens, UniProt O75030); assay: reducers of TRPM1 reporter luminescence, concentration series – cell-based, SK-MEL-5, cherry-picked, set 3, MITF inhibitor project, dose response (AID 493073); format: functional;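 further: SK-MEL-5 melanoma cells with luciferase driven by the MITF target TRPM1 promoter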
T1 sequence (O75030 whole entry): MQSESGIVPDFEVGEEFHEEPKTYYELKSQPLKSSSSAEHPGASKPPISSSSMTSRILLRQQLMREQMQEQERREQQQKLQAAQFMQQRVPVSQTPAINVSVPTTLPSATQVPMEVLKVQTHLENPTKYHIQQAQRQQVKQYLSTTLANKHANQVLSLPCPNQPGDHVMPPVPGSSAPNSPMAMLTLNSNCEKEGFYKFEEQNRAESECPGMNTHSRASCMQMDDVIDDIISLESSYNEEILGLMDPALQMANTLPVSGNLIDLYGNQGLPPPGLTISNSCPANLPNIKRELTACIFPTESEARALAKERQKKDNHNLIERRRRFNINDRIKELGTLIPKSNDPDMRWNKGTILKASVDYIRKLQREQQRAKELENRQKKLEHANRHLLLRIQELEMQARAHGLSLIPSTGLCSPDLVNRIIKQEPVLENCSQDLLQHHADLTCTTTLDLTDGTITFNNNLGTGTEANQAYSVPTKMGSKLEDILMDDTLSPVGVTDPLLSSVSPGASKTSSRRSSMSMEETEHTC

[2] = biological target: T2, High affinity choline transporter 1 (Homo sapiens, UniProt Q9GZV3); assay: human choline transporter blockers, potency – cell-based, 5-point CRC, membrane potential dye, dose response (AID 504840); format: functional
T2 sequence (Q9GZV3 whole entry): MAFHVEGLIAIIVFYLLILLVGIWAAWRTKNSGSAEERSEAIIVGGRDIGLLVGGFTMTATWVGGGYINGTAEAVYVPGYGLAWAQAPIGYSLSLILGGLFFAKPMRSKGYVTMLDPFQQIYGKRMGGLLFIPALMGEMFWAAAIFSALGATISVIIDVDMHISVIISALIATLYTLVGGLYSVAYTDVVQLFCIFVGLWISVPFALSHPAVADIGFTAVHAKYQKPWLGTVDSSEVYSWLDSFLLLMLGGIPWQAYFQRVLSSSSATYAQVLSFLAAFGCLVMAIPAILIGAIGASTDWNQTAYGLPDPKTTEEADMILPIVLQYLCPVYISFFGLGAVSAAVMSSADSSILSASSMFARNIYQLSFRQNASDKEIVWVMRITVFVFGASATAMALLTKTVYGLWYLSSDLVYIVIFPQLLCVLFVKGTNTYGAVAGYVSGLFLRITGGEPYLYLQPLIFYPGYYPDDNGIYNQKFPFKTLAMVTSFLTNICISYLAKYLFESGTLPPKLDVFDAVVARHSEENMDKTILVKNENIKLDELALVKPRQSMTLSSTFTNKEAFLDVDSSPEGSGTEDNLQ

[3] = biological target: T3, Sentrin-specific protease 8 (Homo sapiens, UniProt Q96LD8); format: functional;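 further: luminescence read-out of SENP8 inhibition, dose-response confirmation following an ultra-high-throughput screen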
T3 sequence (Q96LD8 whole entry): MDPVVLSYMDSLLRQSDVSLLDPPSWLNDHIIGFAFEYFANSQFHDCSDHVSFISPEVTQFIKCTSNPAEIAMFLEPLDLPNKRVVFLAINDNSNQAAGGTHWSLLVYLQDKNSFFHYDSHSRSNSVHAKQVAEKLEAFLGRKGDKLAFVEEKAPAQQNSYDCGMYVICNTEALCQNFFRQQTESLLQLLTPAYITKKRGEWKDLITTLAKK

Caspase-3 = biological target: T4, Caspase-3 (Homo sapiens, UniProt P42574); format: functional;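 further: Dose-response selectivity test against caspase-3 for candidate inhibitors of sentrin-specific proteases (SENPs)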
T4 sequence (P42574 whole entry): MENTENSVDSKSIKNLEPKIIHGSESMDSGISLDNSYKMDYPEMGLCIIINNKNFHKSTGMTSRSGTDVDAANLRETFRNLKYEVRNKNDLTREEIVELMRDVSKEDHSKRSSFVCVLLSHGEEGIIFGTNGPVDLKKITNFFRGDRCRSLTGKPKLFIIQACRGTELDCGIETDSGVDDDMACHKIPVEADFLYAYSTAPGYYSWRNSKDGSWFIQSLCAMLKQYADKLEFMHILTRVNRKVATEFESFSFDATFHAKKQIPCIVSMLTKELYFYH

[4] = biological target: T5, Sentrin-specific protease 7 (Homo sapiens, UniProt Q9BQF6); format: functional;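 further: Luminescence-based dose-response confirmation of ultra-high-throughput screening hits, measuring inhibition of SENP7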
T5 sequence (Q9BQF6 whole entry): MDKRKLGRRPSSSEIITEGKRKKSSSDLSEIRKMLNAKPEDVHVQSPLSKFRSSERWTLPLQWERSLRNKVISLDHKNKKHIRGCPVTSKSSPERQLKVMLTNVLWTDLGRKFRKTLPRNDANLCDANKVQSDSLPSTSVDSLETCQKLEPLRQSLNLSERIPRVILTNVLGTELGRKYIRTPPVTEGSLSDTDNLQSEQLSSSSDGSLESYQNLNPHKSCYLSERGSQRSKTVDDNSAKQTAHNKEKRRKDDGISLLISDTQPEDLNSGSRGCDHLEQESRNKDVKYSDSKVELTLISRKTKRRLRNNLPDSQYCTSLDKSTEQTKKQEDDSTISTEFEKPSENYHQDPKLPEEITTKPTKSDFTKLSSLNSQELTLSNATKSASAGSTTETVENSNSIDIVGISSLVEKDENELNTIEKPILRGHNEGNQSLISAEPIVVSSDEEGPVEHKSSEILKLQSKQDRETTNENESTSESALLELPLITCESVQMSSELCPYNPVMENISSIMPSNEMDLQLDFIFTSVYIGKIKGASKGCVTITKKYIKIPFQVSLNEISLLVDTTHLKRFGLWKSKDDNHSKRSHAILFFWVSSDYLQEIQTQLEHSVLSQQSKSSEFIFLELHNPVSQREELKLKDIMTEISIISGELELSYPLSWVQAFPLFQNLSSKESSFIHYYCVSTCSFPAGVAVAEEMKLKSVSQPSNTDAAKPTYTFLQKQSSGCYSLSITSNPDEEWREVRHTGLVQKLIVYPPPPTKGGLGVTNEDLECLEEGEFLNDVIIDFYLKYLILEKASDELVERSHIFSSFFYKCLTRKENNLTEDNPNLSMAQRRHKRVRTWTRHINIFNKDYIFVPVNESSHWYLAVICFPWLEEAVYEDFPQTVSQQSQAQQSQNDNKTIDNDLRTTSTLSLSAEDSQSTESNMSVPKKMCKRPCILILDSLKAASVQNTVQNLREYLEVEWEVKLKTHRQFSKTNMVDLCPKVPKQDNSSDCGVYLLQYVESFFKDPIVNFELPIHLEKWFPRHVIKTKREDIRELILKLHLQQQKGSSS

[5] = biological target: T6, Sentrin-specific protease 6 (Homo sapiens, UniProt Q9GZR1); format: functional;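 further: Luminescence-based dose-response confirmatory assay of SENP6 inhibition, following up an ultra-high-throughput screen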
T6 sequence (Q9GZR1 whole entry): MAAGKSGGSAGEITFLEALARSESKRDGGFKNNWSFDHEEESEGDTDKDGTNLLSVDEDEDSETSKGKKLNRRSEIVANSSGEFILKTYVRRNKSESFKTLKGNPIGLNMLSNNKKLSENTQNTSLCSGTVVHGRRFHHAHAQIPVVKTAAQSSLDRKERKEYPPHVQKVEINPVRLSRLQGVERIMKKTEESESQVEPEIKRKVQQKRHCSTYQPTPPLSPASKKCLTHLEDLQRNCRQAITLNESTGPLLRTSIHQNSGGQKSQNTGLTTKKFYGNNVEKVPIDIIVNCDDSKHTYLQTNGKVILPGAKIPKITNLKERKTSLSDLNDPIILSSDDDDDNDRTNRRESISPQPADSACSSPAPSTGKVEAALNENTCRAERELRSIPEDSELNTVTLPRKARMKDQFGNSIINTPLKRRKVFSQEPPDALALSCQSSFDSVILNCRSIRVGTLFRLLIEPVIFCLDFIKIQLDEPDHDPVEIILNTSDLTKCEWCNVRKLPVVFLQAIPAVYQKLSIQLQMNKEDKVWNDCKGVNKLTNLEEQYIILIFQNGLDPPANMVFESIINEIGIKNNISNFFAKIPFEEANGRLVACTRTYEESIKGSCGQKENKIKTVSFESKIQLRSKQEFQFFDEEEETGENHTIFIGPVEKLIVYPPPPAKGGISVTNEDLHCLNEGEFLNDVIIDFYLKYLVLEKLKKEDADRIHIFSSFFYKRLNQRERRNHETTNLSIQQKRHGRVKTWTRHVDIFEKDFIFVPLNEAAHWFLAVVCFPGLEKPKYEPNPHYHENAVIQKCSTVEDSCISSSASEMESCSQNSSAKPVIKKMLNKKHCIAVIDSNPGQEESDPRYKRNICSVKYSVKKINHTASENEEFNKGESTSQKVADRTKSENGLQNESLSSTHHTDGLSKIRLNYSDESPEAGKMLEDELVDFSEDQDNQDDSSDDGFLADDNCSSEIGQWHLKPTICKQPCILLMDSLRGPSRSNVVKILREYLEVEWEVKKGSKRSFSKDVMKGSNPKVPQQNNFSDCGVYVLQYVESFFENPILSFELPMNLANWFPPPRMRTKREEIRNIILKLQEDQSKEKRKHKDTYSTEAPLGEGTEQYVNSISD

[6] = THP-1 cell cytotoxicity, dose response, cytotoxicity control for non-replicating M. tuberculosis project (AID 489025); format: functional
cells = format: functional
[7] = viability of HCT116 lacking mutant beta-catenin – cell-based, human colon tumor, dose response (AID 1045); format: functional;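 further: HCT116 colon tumor cells with beta catenin knocked out; cells exposed to compound for 60 hours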
[8] = NIH3T3 cell viability loss – ATP luminescence, mouse fibroblasts, counter-screen, dose response (AID 2010); format: functional, cell-based;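 further: cells exposed to compound for about 90 hours before reading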
[9] = Trypanosoma cruzi growth suppression in host cells – NIH3T3 host cells, beta-gal luminescence, confirmation (AID 2044); format: functional, cell-based;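 further: intracellular parasites grown in NIH/3T3 mouse fibroblasts as host cells; luminescent beta-galactosidase reporter signal from transgenic T. cruzi replicating inside host cells; inhibitors lower the luminescence signal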
[10] = viability of PTEN-deleted HCT116 cells – cell-based, HCT116 PTEN knockout, dose response (AID 1047); format: functional;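 further: HCT116 colon tumor cells with PTEN knocked out; cells exposed to compound for 60 hours before readout; potency for loss of cell viability measured by luminescence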
INS1 = assay: INS-1E survival protection against cytokine death – cell-based, luminescence, retest, dose response (AID 449756); format: functional; details: Rattus norvegicus;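 further: cell death triggered by IL-1 beta plus TNF-alpha plus IFN-gamma mixture; protective hits raise ATP signal compared with cytokine alone wells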
Streptococcus = assay: GAS UMAA2166 growth inhibition – luminescence, BacTiterGlo, counter-screen for streptokinase expression inhibitor project, dose response (AID 1915); format: functional, organism-based;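 further: potency for reduction of bacterial viability or growth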
[11] = test system: Streptococcus sp. 'group A'; assay: Streptococcus pyogenes SK(-)GAS viability under kanamycin – luminescence, BacTiterGlo, confirmation, counter-screen for streptokinase expression inhibitor project, dose response (AID 1900); format: functional, organism-based
Streptokinase A = biological target: T7, Streptokinase A (Streptococcus pyogenes serotype M1, UniProt P10520); assay: viability-normalized secreted streptokinase activity reduction – plasminogen activation absorbance, OD405, dose response (AID 1914); format: functional, Streptococcus pyogenes M1 GAS;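 further: secreted streptokinase activity via plasminogen activation per viability signal from cell pellet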
T7 sequence (P10520 whole entry): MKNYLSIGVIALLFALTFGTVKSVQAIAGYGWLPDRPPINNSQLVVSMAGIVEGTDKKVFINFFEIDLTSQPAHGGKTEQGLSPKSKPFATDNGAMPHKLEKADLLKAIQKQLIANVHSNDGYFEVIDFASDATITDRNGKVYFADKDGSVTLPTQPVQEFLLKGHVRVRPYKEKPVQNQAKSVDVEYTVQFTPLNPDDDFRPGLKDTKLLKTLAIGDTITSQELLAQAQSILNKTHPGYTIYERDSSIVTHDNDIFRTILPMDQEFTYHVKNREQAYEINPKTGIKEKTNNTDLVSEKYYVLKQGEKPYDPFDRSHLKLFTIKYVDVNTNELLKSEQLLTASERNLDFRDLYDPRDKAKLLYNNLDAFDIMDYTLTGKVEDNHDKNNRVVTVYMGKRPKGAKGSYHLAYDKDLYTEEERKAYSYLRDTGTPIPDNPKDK

COc1cc2nc(SCC(=O)NCc3ccco3)n(Cc3ccc(Cl)cc3)c(=O)c2cc1OC
AC50 [1]: 13.2 µM (active)

O=S(=O)(c1ccc(N2CCCC2)nc1)N1CCCC1
IC50 [2]: 8.93 µM (active)

O=C(O)C(Oc1ccc2cc(-c3ccc(Cl)cc3)c(=O)oc2c1)c1ccccc1 (stereo unspecified)
IC50 [3]: 31.8 µM (active)
IC50 (Caspase-3): 38.3 µM (active)
IC50 [4]: 28.7 µM (active)
IC50 [5]: 31.3 µM (active)

Cc1ccc(C(=O)c2cc3ccccc3o2)cc1C
IC50 [3]: 10.6 µM (active)
IC50 (Caspase-3): 11.2 µM (active)
IC50 [4]: 3.18 µM (active)
IC50 [5]: 6.41 µM (active)

Cc1nn(-c2ccccc2)c(C)c1C(=O)OCC(=O)NC(=O)NC1CCCC1
IC50 [2]: 14.5 µM (active)

O=C(Nc1ccc2ncccc2c1)c1cccc(Br)c1
IC50 [3]: 28.7 µM (active)
IC50 (Caspase-3): 32.1 µM (active)
IC50 [4]: 8.67 µM (active)
IC50 [5]: 29.1 µM (active)

Cc1ccc(NC(S)=NNC(=O)C2CC2c2ccc(C)cc2)cc1 (stereo unspecified)
IC50 [2]: 13.2 µM (active)

COC(=O)/C(=C/c1c[nH]c2ccccc12)[N+](=O)[O-]
IC50 [2]: 0.724 µM (active)

O=C(NC(=S)NCc1ccccc1)c1ccccc1
AC50 [1]: 22.1 µM (active)

CN(C)CCCn1c(=O)n(C2CCCCC2)c(=O)c2c3c(sc21)CCCCC3
IC50 [2]: 8.71 µM (active)
CC50 [6]: 23.8 µM (active)
IC50 (cells): 24.9 µM (active)

COc1ccc(C(=O)NC(C)c2nccs2)cc1OC1CCN(C(C)C)CC1 (stereo unspecified)
IC50 [2]: 12.9 µM (active)

Cn1c(SCC(=O)N/N=C/c2ccc([N+](=O)[O-])s2)nnc1-c1ccccc1
AC50 [1]: 4.28 µM (active)
EC50 [7]: 4.99 µM (active)
EC50 [8]: 19.8 µM (active)
EC50 [9]: 0.634 µM (active)
EC50 [10]: 4.9 µM (active)
AC50 (INS1): 3.5 µM (active)

CN(C)c1ccc(/C=N/Nc2nc3ccccc3o2)cc1
EC50 (Streptococcus): > 150 µM (not active)
IC50 [3]: 1.74 µM (active)
IC50 (Caspase-3): 2.05 µM (active)
EC50 [11]: > 150 µM (not active)
IC50 [4]: < 1.55 µM (active)
EC50 (Streptokinase A): > 150 µM (not active)
IC50 [5]: 1.72 µM (active)

CCc1cc(CC)c(/C=N/NC(N)=O)c(CC)c1/C=N/NC(N)=O
IC50 [2]: 11.1 µM (active)
